The source of these data is PubChem BioAssay AID256 (DTP/NCI, 2004).

This test deals with CD2F1 mice, L1210 leukemia ip, survival T/C. Description: NCI In Vivo Anticancer Drug Screen. Data for tumor model L1210 Leukemia (intraperitoneal) in CD2F1 (CDF1) mice. To be noted: higher = longer survival. The method in brief:
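Tumor-bearing mice (transplanted tumor) were split into treated and vehicle control groups, and the measured endpoint of each treated group was divided by that of its vehicle controls.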

[1] abbreviates: endpoint: mean survival time, dose: 100.0 mg/kg/injection, schedule: Q01DX001 (ip), vehicle: saline.
Where [2] appears, read: endpoint: mean survival time, dose: 100.0 mg/kg/injection, schedule: Q01DX009 (ip), vehicle: saline with Tween-80.

Several values for one entry are separate records, joined by “and”; a condition that tells them apart may be missing. Identical values can stand only once. Toxic doses and inconclusive results are not listed.

For `NCCCNCCCCNC(=O)C(O)NC(=O)CCCCCCN=C(N)N` (centres undefined), the T/C is 123 % of control (endpoint: median survival time, dose: 0.19 mg/kg/injection, schedule: Q01DX005 (iv), vehicle: saline); 185 % of control and 231 % of control (endpoint: median survival time, dose: 0.39 mg/kg/injection, schedule: Q01DX009 (ip), vehicle: saline); 198 % of control (endpoint: median survival time, dose: 0.75 mg/kg/injection, schedule: Q01DX009 (ip), vehicle: saline); 153 % of control (endpoint: median survival time, dose: 0.78 mg/kg/injection, schedule: Q01DX005 (iv), vehicle: other); 156 % of control (endpoint: median survival time, dose: 0.78 mg/kg/injection, schedule: Q01DX005 (iv), vehicle: saline); 213 % of control (endpoint: median survival time, dose: 0.78 mg/kg/injection, schedule: Q01DX009 (ip), vehicle: other). Besides, the T/C is, setting by setting: (endpoint: median survival time, dose: 1.3 mg/kg/injection, schedule: Q01DX005 (iv), vehicle: other) 153 % of control; (endpoint: median survival time, dose: 1.3 mg/kg/injection, schedule: Q01DX005 (iv), vehicle: saline) 161 % of control; (endpoint: median survival time, dose: 1.5 mg/kg/injection, schedule: Q01DX009 (ip), vehicle: saline) 220 % of control; (endpoint: median survival time, dose: 1.56 mg/kg/injection, schedule: Q01DX005 (iv), vehicle: saline) 160 % of control; (endpoint: median survival time, dose: 1.56 mg/kg/injection, schedule: Q01DX009 (ip), vehicle: other) 213 % of control; (endpoint: median survival time, dose: 2.16 mg/kg/injection, schedule: Q01DX005 (iv), vehicle: other) 171 % of control. The T/C was 165 % of control (endpoint: median survival time, dose: 2.16 mg/kg/injection, schedule: Q01DX005 (iv), vehicle: saline); 220 % of control (endpoint: median survival time, dose: 3.0 mg/kg/injection, schedule: Q01DX009 (ip), vehicle: saline); 172 % of control (endpoint: median survival time, dose: 3.12 mg/kg/injection, schedule: Q01DX005 (iv), vehicle: saline); 204 % of control (endpoint: median survival time, dose: 3.12 mg/kg/injection, schedule: Q01DX009 (ip), vehicle: other); 176 % of control (endpoint: median survival time, dose: 3.6 mg/kg/injection, schedule: Q01DX005 (iv), vehicle: other); 164 % of control (endpoint: median survival time, dose: 3.6 mg/kg/injection, schedule: Q01DX005 (iv), vehicle: saline). Also, the T/C (endpoint: median survival time, dose: 4.4 mg/kg/injection, schedule: Q01DX009 (ip), vehicle: saline) was 221 % of control and 225 % of control and 230 % of control; the T/C (endpoint: median survival time, dose: 4.5 mg/kg/injection, schedule: Q01DX009 (ip), vehicle: saline) was 219 % of control; the T/C (endpoint: median survival time, dose: 6.0 mg/kg/injection, schedule: Q01DX005 (iv), vehicle: other) is 175 % of control; the T/C (endpoint: median survival time, dose: 6.0 mg/kg/injection, schedule: Q01DX005 (iv), vehicle: saline) is 172 % of control; the T/C (endpoint: median survival time, dose: 6.0 mg/kg/injection, schedule: Q01DX009 (ip), vehicle: saline) is 219 % of control; the T/C (endpoint: median survival time, dose: 6.25 mg/kg/injection, schedule: Q01DX005 (iv), vehicle: saline) was 430 % of control. Further, the T/C by setting is: (endpoint: median survival time, dose: 6.25 mg/kg/injection, schedule: Q01DX009 (ip), vehicle: other) 225 % of control; (endpoint: median survival time, dose: 7.88 mg/kg/injection, schedule: Q01DX005 (sc), vehicle: water) 163 % of control; (endpoint: median survival time, dose: 10.0 mg/kg/injection, schedule: Q01DX005 (iv), vehicle: saline) 180 % of control; (endpoint: median survival time, dose: 12.0 mg/kg/injection, schedule: Q01DX009 (ip), vehicle: saline) 223 % of control; (endpoint: median survival time, dose: 12.5 mg/kg/injection, schedule: Q01DX009 (ip), vehicle: other) 242 % of control; (endpoint: median survival time, dose: 15.75 mg/kg/injection, schedule: Q01DX005 (sc), vehicle: water) 173 % of control and 179 % of control. Further, the T/C runs as follows: (endpoint: median survival time, dose: 25.0 mg/kg/injection, schedule: Q01DX009 (ip), vehicle: other) 227 % of control; (endpoint: median survival time, dose: 31.5 mg/kg/injection, schedule: Q01DX005 (sc), vehicle: water) 178 % of control and 182 % of control; (endpoint: median survival time, dose: 31.5 mg/kg/injection, schedule: Q03HX008 (sc), vehicle: water) 164 % of control; (endpoint: median survival time, dose: 37.0 mg/kg/injection, schedule: Q01DX005 (sc), vehicle: water) 183 % of control; (endpoint: median survival time, dose: 45.0 mg/kg/injection, schedule: Q01DX005 (sc), vehicle: water) 176 % of control; (endpoint: median survival time, dose: 150.0 micrograms per hour, schedule: Q#X X048 (sc), vehicle: water) 182 % of control. The T/C by setting is: (endpoint: median survival time, dose: 150.0 micrograms per hour, schedule: Q#X X072 (sc), vehicle: water) 182 % of control; (endpoint: median survival time, dose: 150.0 micrograms per hour, schedule: Q#X X096 (sc), vehicle: water) 205 % of control; (endpoint: median survival time, dose: 170.0 micrograms per hour, schedule: Q#X X048 (sc), vehicle: water) 178 % of control; (endpoint: median survival time, dose: 170.0 micrograms per hour, schedule: Q#X X072 (sc), vehicle: water) 200 % of control; (endpoint: median survival time, dose: 200.0 micrograms per hour, schedule: Q#X X048 (sc), vehicle: water) 110 % of control; (endpoint: median survival time, dose: 200.0 micrograms per hour, schedule: Q#X X072 (sc), vehicle: water) 101 % of control. The T/C is, setting by setting: (endpoint: median survival time, dose: 200.0 micrograms per hour, schedule: Q#X X096 (sc), vehicle: water) 114 % of control; (endpoint: median survival time, dose: 207.0 micrograms per hour, schedule: Q#X X048 (sc), vehicle: water) 168 % of control; (endpoint: median survival time, dose: 207.0 micrograms per hour, schedule: Q#X X072 (sc), vehicle: water) 120 % of control; (endpoint: median survival time, dose: 207.0 micrograms per hour, schedule: Q#X X096 (sc), vehicle: water) 109 % of control.

In the case of `CCCN(CCC)S(=O)(=O)c1ccc(NC(=O)OC2CCCCCC2)cc1`, the T/C is, setting by setting: under setting [1], 104 % of control; (endpoint: mean survival time, dose: 200.0 mg/kg/injection, schedule: Q01DX001 (ip), vehicle: saline) 108 % of control; (endpoint: mean survival time, dose: 400.0 mg/kg/injection, schedule: Q01DX001 (ip), vehicle: saline) 104 % of control.

Turning to `CC1CCCCN1C(=O)Nc1c(Cl)cccc1Cl` (centres undefined), the T/C was 98 % of control (endpoint: mean survival time, dose: 50.0 mg/kg/injection, schedule: Q01DX009 (ip), vehicle: saline with Tween-80); 105 % of control under setting [2]; 94 % of control (endpoint: mean survival time, dose: 200.0 mg/kg/injection, schedule: Q01DX009 (ip), vehicle: saline with Tween-80).

Consider `C[S+](C)CC(C)(C)CI`, for which the T/C (endpoint: mean survival time, dose: 25.0 mg/kg/injection, schedule: Q01DX001 (ip), vehicle: saline) was 100 % of control; the T/C (endpoint: mean survival time, dose: 50.0 mg/kg/injection, schedule: Q01DX001 (ip), vehicle: saline) was 110 % of control; the T/C under setting [1] is 100 % of control and 101 % of control.

Turning to `COc1cc2c(cc1C(C)C)CCC1C(C)(C(=O)O)CCCC21C` (centres undefined), the T/C runs as follows: (endpoint: mean survival time, dose: 100.0 mg/kg/injection, schedule: Q01DX001 (ip), vehicle: saline with Tween-80) 100 % of control; (endpoint: mean survival time, dose: 100.0 mg/kg/injection, schedule: Q01DX009 (ip), vehicle: saline sonified) 95 % of control; (endpoint: mean survival time, dose: 200.0 mg/kg/injection, schedule: Q01DX001 (ip), vehicle: saline with Tween-80) 97 % of control; (endpoint: mean survival time, dose: 200.0 mg/kg/injection, schedule: Q01DX009 (ip), vehicle: saline sonified) 97 % of control; (endpoint: mean survival time, dose: 400.0 mg/kg/injection, schedule: Q01DX001 (ip), vehicle: saline with Tween-80) 102 % of control; (endpoint: mean survival time, dose: 400.0 mg/kg/injection, schedule: Q01DX009 (ip), vehicle: saline sonified) 96 % of control.

Take `Brc1ccc2[nH]c3c(c2c1)CSc1ccccc1-3`: the T/C is, setting by setting: (endpoint: mean survival time, dose: 100.0 mg/kg/injection, schedule: Q01DX009 (ip), vehicle: Klucel (hydroxypropylcellulose) (HPC)) 104 % of control; (endpoint: mean survival time, dose: 200.0 mg/kg/injection, schedule: Q01DX009 (ip), vehicle: Klucel (hydroxypropylcellulose) (HPC)) 108 % of control; (endpoint: mean survival time, dose: 400.0 mg/kg/injection, schedule: Q01DX009 (ip), vehicle: Klucel (hydroxypropylcellulose) (HPC)) 112 % of control.

Consider `O=C1C(=O)c2ccccc2C(O)=C1C(C1=C(O)c2ccccc2C(=O)C1=O)c1ccccc1Br`, for which the T/C reads like this: (endpoint: mean survival time, dose: 100.0 mg/kg/injection, schedule: Q01DX001 (ip), vehicle: saline sonified) 98 % of control; under setting [2], 86 % of control; (endpoint: mean survival time, dose: 200.0 mg/kg/injection, schedule: Q01DX001 (ip), vehicle: saline sonified) 102 % of control; (endpoint: mean survival time, dose: 400.0 mg/kg/injection, schedule: Q01DX001 (ip), vehicle: saline sonified) 91 % of control.

As to `C[C@H]1C[C@@H]2[C@H]([C@@H](O)C[C@@]3(C)[C@H]2CC[C@]3(O)C(=O)CF)[C@@]2(C)C=CC(=O)C=C12`, the T/C by setting is: (endpoint: mean survival time, dose: 100.0 mg/kg/injection, schedule: Q01DX001 (sc), vehicle: steriod suspending solution) 98 % of control; (endpoint: mean survival time, dose: 200.0 mg/kg/injection, schedule: Q01DX001 (sc), vehicle: steriod suspending solution) 101 % of control; (endpoint: mean survival time, dose: 400.0 mg/kg/injection, schedule: Q01DX001 (sc), vehicle: steriod suspending solution) 108 % of control.

Turning to `CCOC(=O)c1c(-c2ccccc2)csc1NC(=O)CBr`, the T/C (endpoint: mean survival time, dose: 75.0 mg/kg/injection, schedule: Q01DX001 (ip), vehicle: saline) was 106 % of control; the T/C (endpoint: mean survival time, dose: 150.0 mg/kg/injection, schedule: Q01DX001 (ip), vehicle: saline) was 101 % of control; the T/C (endpoint: mean survival time, dose: 300.0 mg/kg/injection, schedule: Q01DX001 (ip), vehicle: saline) was 98 % of control.
